Measured values taken from patent publication US7138361B2, “Herbicidal heterocycles” (E. I. du Pont de Nemours and Company, priority 2000, dated 2006).

Legend:
Format in all cases: in vivo
[1] = system: lambsquarters (Chenopodium album); assay: Test B preemergence
Method in brief: (§1)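 Seeds were planted and sprayed preemergence with test chemical in a non-phytotoxic solvent mixture containing surfactant; postemergence plants (2 to 18 cm, 1- to 4-leaf stage) received the same formulation. Greenhouse hold 13 to 15 days, then visual rating versus untreated controls on a 0–100 scale (0 no effect, 100 complete control).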

[2] = system: velvetleaf (Abutilon theophrasti); assay: Test B preemergence
Method in brief: as §1

[3] = system: Surinam grass (Brachiaria decumbens); assay: Test B preemergence
Method in brief: as §1

[4] = system: pigweed (Amaranthus retroflexus); assay: Test B preemergence
Method in brief: as §1

corn (Zea mays) [5] = assay: Test B preemergence
Method in brief: as §1

[6] = system: barnyardgrass (Echinochloa crus-galli); assay: Test B preemergence
Method in brief: as §1

[7] = system: cocklebur (Xanthium strumarium); assay: Test B preemergence
Method in brief: as §1

rice (Oryza saliva) [8] = assay: Test B preemergence
Method in brief: as §1

[9] = system: crabgrass (Digitaria sanguinalis); assay: Test B preemergence
Method in brief: as §1

[10] = system: morning glory (Ipomoea hederacea); assay: Test B preemergence
Method in brief: as §1

[11] = system: giant foxtail (Setaria faberii); assay: Test B preemergence
Method in brief: as §1

[12] = system: duck salad (Heteranthera limosa); assay: Test C flooded paddy test; details: for Ducksalad plant response rating: Flooded Paddy, scale 0 to 100, 0 no effect, 100 complete control; for Plant response rating, Ducksalad: flooded paddy test, scale 0 to 100 (0 no effect, 100 complete control)
Method in brief: (§2)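 Plants were grown to the 2-leaf stage under flooded paddy conditions and treated. They were then kept in a greenhouse for 12 to 14 days and visually rated against untreated controls on a 0–100 scale, where 0 is no effect and 100 is complete control.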

[13] = system: barnyardgrass (Echinochloa crus-galli); assay: Test C flooded paddy test; details: for Barnyardgrass plant response rating: Flooded Paddy, scale 0 to 100, 0 no effect, 100 complete control; for Plant response rating, Barnyardgrass: flooded paddy test, scale 0 to 100 (0 no effect, 100 complete control)
Method in brief: as §2

rice (Oryza saliva) [14] = assay: Test C flooded paddy test; details: for Rice plant response rating: Flooded Paddy, scale 0 to 100, 0 no effect, 100 complete control; for Plant response rating, Rice: flooded paddy test, scale 0 to 100 (0 no effect, 100 complete control)
Method in brief: as §2

[15] = system: smallflower flatsedge (Cyperus difformis); assay: Test C flooded paddy test; details: for Flatsedge plant response rating: Flooded Paddy, scale 0 to 100, 0 no effect, 100 complete control; for Plant response rating, Flatsedge: flooded paddy test, scale 0 to 100 (0 no effect, 100 complete control)
Method in brief: as §2

Nightshade = assay: Test C preemergence; details: visual evaluation after 12 to 14 days
[16] = system: velvetleaf (Abutilon theophrasti); assay: Test B postemergence; details: 13 to 15 days
Method in brief: as §1

[17] = system: Surinam grass (Brachiaria decumbens); assay: Test B postemergence; details: 13 to 15 days
Method in brief: as §1

[18] = system: pigweed (Amaranthus retroflexus); assay: Test B postemergence; details: 13 to 15 days
Method in brief: as §1

corn (Zea mays) [19] = assay: Test B postemergence; details: 13 to 15 days
Method in brief: as §1

[20] = system: barnyardgrass (Echinochloa crus-galli); assay: Test B postemergence; details: 13 to 15 days
Method in brief: as §1

[21] = system: morning glory (Ipomoea hederacea); assay: Test B postemergence; details: 13 to 15 days
Method in brief: as §1

[22] = system: wheat (Triticum aestivum); assay: Test B postemergence; details: 13 to 15 days
Method in brief: as §1

[23] = system: blackgrass (Alopecurus myosuroides); assay: Test B postemergence; details: 13 to 15 days
Method in brief: as §1

[24] = system: giant foxtail (Setaria faberii); assay: Test B postemergence; details: 13 to 15 days
Method in brief: as §1

Sunflower = assay: Test C preemergence; details: scale 0 to 100, 0 no effect, 100 complete control
[25] = Preemergence, Rate 500 g/ha, scale 0 to 100, 0 no effect, 100 complete control
[26] = preemergence, Rate 125 g/ha, scale 0 to 100, 0 no effect, 100 complete control
[27] = Rate 125 g/ha, scale 0 (no effect) to 100 (complete control)
[28] = Rate 500 g/ha, scale 0 to 100, 0 is no effect, 100 is complete control
[29] = preemergence, Rate 125 g/ha, scale of 0 to 100 where 0 is no effect and 100 is complete control, 13 to 15 days

O=C1C(n2ccc(C3CCC3)n2)SCN1c1cccc(OC(F)F)c1 (stereo not drawn) [Compound 45]
Plant response rating, Lambsquarters [1, 25]: 100
Plant response rating, Lambsquarters [1, 26]: 100
Plant response rating, Velvetleaf [2, 25]: 0
Plant response rating, Surinam grass [3, 25]: 80
Plant response rating, Surinam grass [3, 26]: 70
Plant response rating, Pigweed [4, 25]: 100
Plant response rating, Corn (corn (Zea mays) [5]; [25]): 0
Plant response rating, Corn (corn (Zea mays) [5]; [26]): 0
Plant response rating, Barnyardgrass [6, 25]: 100
Plant response rating, Barnyardgrass [6, 26]: 80
Plant response rating, Cocklebur [7, 25]: 0
Plant response rating, Cocklebur [7, 26]: 0
Plant response rating, Rice (rice (Oryza saliva) [8]; [25]): 60
Plant response rating, Crabgrass [9, 25]: 100
Plant response rating, Crabgrass [9, 26]: 30
Plant response rating, Morningglory [10, 25]: 0
Plant response rating, Foxtail, Giant [11, 25]: 100
Plant response rating, Foxtail, Giant [11, 26]: 100
Ducksalad plant response rating ([12]; Rate 250 g/ha): 100
Ducksalad plant response rating ([12]; Rate 500 g/ha): 100
Plant response rating, Ducksalad ([12]; Rate 62 g/ha): 50
Plant response rating, Ducksalad ([12]; Rate 125 g/ha): 80
Barnyardgrass plant response rating ([13]; Rate 250 g/ha): 100
Barnyardgrass plant response rating ([13]; Rate 500 g/ha): 100
Plant response rating, Barnyardgrass ([13]; Rate 62 g/ha): 70
Plant response rating, Barnyardgrass ([13]; Rate 125 g/ha): 100
Rice plant response rating (rice (Oryza saliva) [14]; Rate 250 g/ha): 70
Rice plant response rating (rice (Oryza saliva) [14]; Rate 500 g/ha): 100
Plant response rating, Rice (rice (Oryza saliva) [14]; Rate 62 g/ha): 0
Plant response rating, Rice (rice (Oryza saliva) [14]; Rate 125 g/ha): 50
Flatsedge plant response rating ([15]; Rate 250 g/ha): 100
Flatsedge plant response rating ([15]; Rate 500 g/ha): 100
Plant response rating, Flatsedge ([15]; Rate 62 g/ha): 90
Plant response rating, Flatsedge ([15]; Rate 125 g/ha): 100
Plant response rating (0 to 100), Nightshade (Nightshade; Rate 250 g/ha): 0
Plant response rating, Velvetleaf [16, 27]: 0
Plant response rating, Velvetleaf [16, 28]: 0
Plant response rating, Surinam grass [17, 27]: 0
Plant response rating, Surinam grass [17, 28]: 0
Plant response rating, Pigweed [18, 27]: 0
Plant response rating, Pigweed [18, 28]: 0
Plant response rating, Corn (corn (Zea mays) [19]; [27]): 0
Plant response rating, Corn (corn (Zea mays) [19]; [28]): 0
Plant response rating, Barnyardgrass [20, 27]: 30
Plant response rating, Barnyardgrass [20, 28]: 100
Plant response rating, Morningglory [21, 27]: 0
Plant response rating, Morningglory [21, 28]: 0
Plant response rating, Wheat [22, 27]: 0
Plant response rating, Wheat [22, 28]: 0
Plant response rating, Blackgrass [23, 27]: 0
Plant response rating, Blackgrass [23, 28]: 0
Plant response rating, Foxtail, Giant [24, 27]: 0
Plant response rating, Foxtail, Giant [24, 28]: 0
Plant response rating, Sunflower (Sunflower; Rate 125 g/ha): 20

CCCOc1cc(N2CCC(n3ccc(C(C)(C)C)n3)C2=O)ccc1C (stereo not drawn) [Compound 107]
Plant response rating, Lambsquarters [1, 25]: 100
Plant response rating, Lambsquarters [1, 29]: 100
Plant response rating, Velvetleaf [2, 25]: 0
Plant response rating, Velvetleaf [2, 29]: 0
Plant response rating, Surinam grass [3, 25]: 70
Plant response rating, Surinam grass [3, 29]: 0
Plant response rating, Pigweed [4, 25]: 100
Plant response rating, Pigweed [4, 29]: 80
Plant response rating, Corn (corn (Zea mays) [5]; [25]): 0
Plant response rating, Corn (corn (Zea mays) [5]; [29]): 0
Plant response rating, Barnyardgrass [6, 25]: 30
Plant response rating, Barnyardgrass [6, 29]: 0
Plant response rating, Cocklebur [7, 25]: 20
Plant response rating, Cocklebur [7, 29]: 0
Plant response rating, Rice (rice (Oryza saliva) [8]; [25]): 0
Plant response rating, Rice (rice (Oryza saliva) [8]; [29]): 0
Plant response rating, Crabgrass [9, 25]: 100
Plant response rating, Crabgrass [9, 29]: 0
Plant response rating, Morningglory [10, 25]: 100
Plant response rating, Morningglory [10, 29]: 0
Plant response rating, Foxtail, Giant [11, 25]: 40
Plant response rating, Foxtail, Giant [11, 29]: 0
Ducksalad plant response rating ([12]; Rate 250 g/ha): 0
Ducksalad plant response rating ([12]; Rate 500 g/ha): 70
Plant response rating, Ducksalad ([12]; Rate 62 g/ha): 0
Plant response rating, Ducksalad ([12]; Rate 125 g/ha): 0
Barnyardgrass plant response rating ([13]; Rate 250 g/ha): 70
Barnyardgrass plant response rating ([13]; Rate 500 g/ha): 80
Plant response rating, Barnyardgrass ([13]; Rate 62 g/ha): 20
Plant response rating, Barnyardgrass ([13]; Rate 125 g/ha): 30
Rice plant response rating (rice (Oryza saliva) [14]; Rate 250 g/ha): 0
Rice plant response rating (rice (Oryza saliva) [14]; Rate 500 g/ha): 20
Plant response rating, Rice (rice (Oryza saliva) [14]; Rate 62 g/ha): 0
Plant response rating, Rice (rice (Oryza saliva) [14]; Rate 125 g/ha): 0
Flatsedge plant response rating ([15]; Rate 250 g/ha): 60
Flatsedge plant response rating ([15]; Rate 500 g/ha): 100
Plant response rating, Flatsedge ([15]; Rate 62 g/ha): 30
Plant response rating, Flatsedge ([15]; Rate 125 g/ha): 50
Plant response rating (0 to 100), Nightshade (Nightshade; Rate 500 g/ha): 90
Plant response rating, Velvetleaf [16, 28]: 70
Plant response rating, Surinam grass [17, 27]: 0
Plant response rating, Surinam grass [17, 28]: 0
Plant response rating, Pigweed [18, 28]: 90
Plant response rating, Corn (corn (Zea mays) [19]; [27]): 0
Plant response rating, Corn (corn (Zea mays) [19]; [28]): 0
Plant response rating, Barnyardgrass [20, 27]: 0
Plant response rating, Barnyardgrass [20, 28]: 0
Plant response rating, Morningglory [21, 28]: 70
Plant response rating, Wheat [22, 28]: 0
Plant response rating, Blackgrass [23, 27]: 0
Plant response rating, Blackgrass [23, 28]: 0
Plant response rating, Foxtail, Giant [24, 27]: 0
Plant response rating, Foxtail, Giant [24, 28]: 0
Plant response rating, Sunflower (Sunflower; Rate 250 g/ha): 40
